Results published in EP4711372A1, “CRYSTAL FORM OF HETEROCYCLIC COMPOUND, SALT THEREOF, CRYSTAL FORM OF SALT THEREOF, AND USE” (Hubei Bio-Pharmaceutical Industrial Technological Institute …, priority 2023, dated 2024).
pIC50: −log10 of the molar value.

How the values were obtained:
[1] = Pharmacokinetics in mice (oral gavage); type: in vivo; settings: mouse, plasma, male CD-1 mice, 10 mg/kg
Method: The pharmacokinetic properties of the compounds obtained in Example 1 in mice were determined with reference to the following experimental methods.
Three male CD-1 mice were administered by oral gavage at a dose of 10 mg/kg, and the vehicle was 5% DMSO + 10% Solutol + 85% Saline. The mice were fasted overnight, and the time points of blood collection were before administration and at 15 minutes, 30 minutes, 1 hour, 2 hours, 4 hours, 8 hours, and 24 hours after administration. Blood samples were centrifuged at 6,800 g for 6 minutes at 2 to 8°C, and plasma was collected and stored at - 80°C. 10 µL of plasma at each time point was taken and added with 200 µL of methanol containing 100 ng/mL internal standard. The mixture was vortexed, mixed well, and centrifuged at 18,000 g for 7 minutes at 2 to 8°C. 200 µL of the mixture was transferred to a 96-well injection plate for LC-MS/MS quantitative analysis. The main pharmacokinetic parameters were analyzed using WinNonlin 7.0 software with non-compartmental model.

[2] = tested on: mouse IPF prevention model; test: Efficacy test on mouse IPF prevention model (Bleomycin-induced); type: in vivo, mice; settings: mean; compound I-3B 2.5 mg/kg bid, oral gavage, 21 consecutive days
Method: Male mice were adaptively fed for 1 to 2 weeks and after reaching the standard weight (25 g), the IPF model (idiopathic pulmonary fibrosis model) was induced with a certain dose of Bleomycin. On the day of modeling, the animals were randomly divided into a model group and an administration group according to their weight, in which the administration groups were administered Nintedanib (60 mg/kg, once a day (qd)) and compound I-3B obtained in Example 1 (2.5 mg/kg, twice a day (bid)) by oral gavage for 21 consecutive days while the vehicle control group was administered blank vehicle. During the administration period, the animals were weighed every 3 days. At the end of the last day of administration, the animals were euthanized. The lungs were removed from the thyroid cartilage (without perfusion), slowly perfused with 10% formalin until both lungs were filled, and fixed in 10% formalin 5 to 10 times the volume of the tissues after the trachea was ligated. The left lung tissues were embedded in paraffin wax, sectioned, and stained with HE and Masson Trichrome. The sections were subjected to panoramic scanning using a Hamamatsu NanoZoomer Digital Pathology (S210) slide scanner for pathological analysis.

[3] = tested on: IBD in mice; test: Efficacy on IBD in mice (DSS-induced); type: in vivo, C57BL/6 mice; settings: for CL (colon length) / CL/CW/BW / CW (colon weight) / DAI / body weight / inflammatory cell infiltration score (histopathological examination of colon tissues) / tissue injury score (histopathological examination of colon tissues): compared with G2 model group; for Colon length CL / Colon weight CW: day 0 to day 9, necropsy day 10
Method: The mice in G2 to G6 were given 2% DSS aqueous solution on day 0 to day 6, normal water on […], vehicle/positive/test substance on day 0 to day 9, and euthanized on day 10 for necropsy. Colon weight (CW) and colon length (CL) were measured and colon tissues […] were subjected to histopathological examination.

[4] = tested on: mouse IPF treatment model; test: Efficacy test on mouse IPF treatment model (Bleomycin-induced); type: in vivo, mice; settings: mean, oral gavage, 14 consecutive days from day 7
Method: Male mice were adaptively fed for 1 to 2 weeks and after reaching the standard weight (25 g), the IPF model (idiopathic pulmonary fibrosis model) was induced with a certain dose of Bleomycin. On the day of modeling, the animals were randomly divided into a model group and an administration group according to their weight, in which the administration groups were administered Nintedanib (60 mg/kg, qd), low-dose compound I-3B obtained in Example 1 (1 mg/kg, bid), and high-dose compound I-3B obtained in Example 1 (2.5 mg/kg, bid) by oral gavage for 14 consecutive days starting from day 7 while the vehicle control group was administered blank vehicle. During the administration period, the animals were weighed twice a week. At the end of the last day of administration, the animals were euthanized. The lungs were removed from the thyroid cartilage (without perfusion), slowly perfused with 10% formalin until both lungs were filled, and fixed in 10% formalin 5 to 10 times the volume of the tissues after the trachea was ligated. The left lung tissues were embedded in paraffin wax, sectioned, and stained with HE and Masson Trichrome. The sections were subjected to panoramic scanning using a Hamamatsu NanoZoomer Digital Pathology (S210) slide scanner for pathological analysis.

[5] = molecular target: T1, 15-PGDH (Homo sapiens, UniProt P15428); test: 15-PGDH enzyme inhibition assay (fluorescence, NAD+/PGE2); type: biochemical; settings: 15-PGDH inhibition
T1 construct: purchased R&D Systems 5660-DH-010
T1 sequence (P15428 1-266): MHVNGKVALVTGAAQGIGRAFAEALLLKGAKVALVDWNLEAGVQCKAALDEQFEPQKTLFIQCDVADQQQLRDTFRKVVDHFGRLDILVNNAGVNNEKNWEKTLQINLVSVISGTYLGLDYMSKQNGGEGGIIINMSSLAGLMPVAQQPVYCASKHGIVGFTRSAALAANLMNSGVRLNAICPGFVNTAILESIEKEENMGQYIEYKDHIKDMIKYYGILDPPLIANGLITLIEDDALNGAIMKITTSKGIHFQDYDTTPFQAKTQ
Method: 15-PGDH (R&D Systems, Cat. No. 5660-DH-010) was prepared to twice the final concentration, i.e., 30 nM, using Assay Buffer (50 mM Tris-HCl, pH 7.5, 0.01% Tween 20 by volume). 15-PGDH was then added to a 384-well white plate (Cisbio Bioassays, Cat. No. 66PL384025) at 8 µL/well. Negative control wells (with Assay Buffer only and without enzyme) were set. The compound was then prepared to 4 times the final concentration using Assay Buffer, i.e., diluted 3-fold to 10 concentrations starting from 4000 nM. The compound was added to the above white plate at 4 µL/well, mixed well, centrifuged at 1000 rpm for 1 minute, and incubated at 25°C for 10 minutes. Both positive control wells (with 15-PGDH only) and negative control wells (without 15-PGDH) were set. A mixture of NAD^+ (Select, Cat. No. S2518) and PGE2 (R&D Systems, Cat. No.:2296110) was then prepared using Assay Buffer. NAD^+ and PGE2 were prepared to four times their final concentrations, i.e., 2 mM and 0.12 mM, respectively, using Assay Buffer. The mixture was then added to the above white plate at 4 µL/well, mixed well, centrifuged at 1000 rpm for 1 minute, and incubated at 25°C for 30 minutes for the reaction. The fluorescence was measured at an excitation wavelength of 340 nm and an emission wavelength of 485 nm using a TECAN SPARK 20M microplate reader. The IC50 value was calculated using four-parameter fitting with GraphPad Prism 8.0.

Cn1nc2cc(N3C[C@H]4C[C@H]4c4cc(C(=O)N5CCC(F)(F)CC5)cnc43)ccn2c1=O (single isomer, unassigned) [compound I-3B]
AUC(0-t) [1]: 33200 ng·h/mL | Cmax [1]: 4480 ng/mL | Total pulmonary fibrosis score [2]: 3.34 | IBD symptoms and tissue injury in mice ([3]; 2.5 mg/kg and 5 mg/kg, efficacy better than that of the positive control): significantly improve | CL (colon length) ([3]; G4, 2.5 mg/kg-bid): significant increase | CL/CW/BW ([3]; G4, 2.5 mg/kg-bid): significant decrease | CW (colon weight) ([3]; G4, 2.5 mg/kg-bid): significant decrease | DAI ([3]; G4, 2.5 mg/kg-bid): significant decrease | body weight ([3]; G4, 2.5 mg/kg-bid): increase | inflammatory cell infiltration score (histopathological examination of colon tissues) ([3]; G4, 2.5 mg/kg-bid): significant decrease | tissue injury score (histopathological examination of colon tissues) ([3]; G4, 2.5 mg/kg-bid): significant decrease | CL (colon length) ([3]; G5, 5 mg/kg-bid): significant increase | CL/CW/BW ([3]; G5, 5 mg/kg-bid): significant decrease | CW (colon weight) ([3]; G5, 5 mg/kg-bid): significant decrease | DAI ([3]; G5, 5 mg/kg-bid): significant decrease | body weight ([3]; G5, 5 mg/kg-bid): significant increase | inflammatory cell infiltration score (histopathological examination of colon tissues) ([3]; G5, 5 mg/kg-bid): significant decrease | tissue injury score (histopathological examination of colon tissues) ([3]; G5, 5 mg/kg-bid): significant decrease | Colon length CL ([3]; high-dose group (5 mg/kg)): 6.50 cm | Colon weight CW ([3]; high-dose group (5 mg/kg)): 0.16 g | Colon length CL ([3]; low-dose group (2.5 mg/kg)): 6.67 cm | Colon weight CW ([3]; low-dose group (2.5 mg/kg)): 0.17 g | Total pulmonary fibrosis score ([4]; high-dose 2.5 mg/kg bid): 2.6 | Total pulmonary fibrosis score ([4]; low-dose 1 mg/kg bid): 2.74 | pIC50 [5]: 8.45
